Literature values in patent US20240424001A1, “LOCAL […] OF GROWTH AND REPAIR PROMOTING COMPOUNDS FOR TREATING, REDUCING AND/OR PREVENTING STRESS URINARY IN[…] FECAL INCONTINENCE” (STATERA PHARMA INC., priority 2021, published 2024).

Conditions: approximate; testosterone = 100%; varies with species studied and assay methodology (ref. 14)

Compound | relative potency of androgens
C[C@]12CCC(=O)C=C1CC[C@@H]1[C@@H]2CC[C@]2(C)C(=O)CC[C@@H]12 [androstenedione] | ~10%
C[C@]12CC[C@H](O)CC1=CC[C@@H]1[C@@H]2CC[C@]2(C)C(=O)CC[C@@H]12 [dehydroepiandrosterone] | ~5%
C[C@]12CC[C@H]3[C@@H](CCC4=CC(=O)CC[C@@]43C)[C@@H]1CC[C@@H]2O [testosterone] | ~100%
